# In publication PMC5841303, “In silico screening for human norovirus antivirals reveals a novel non-nucleoside inhibitor of the viral polymerase” (Scientific Reports, 2018):
# Where two headings read alike, the source gives them in different places.
# What was measured:
# [1] = Observed compound solubility; type: physicochemical; conditions: assay conditions / 100% DMSO
# Procedure: Therefore, they were counter-screened at 100 µM in a secondary gel-based assay (Supplementary Fig. S1).
# To confirm RdRp inhibition and to exclude any potential false positives from the first fluorescence RdRp assay, the eight selected compounds (Fig. 4C) were then assessed using a gel-shift enzyme activity assay.
# Dose-dependent inhibitory response curves were used to establish IC50 values for the five test compounds (Table 2). […] Therefore, 42b was too insoluble to attain a reliable confidence interval in the dose-response experiments and was not examined further. However, from the other four compounds, hit 11 and its phenyl derivative 54 gave the lowest IC50 values, 3–5 fold improved compared with 13 and its derivative 42a, confirming increased RdRp inhibitory activity associated with this scaffold.
# [2] = tested on: norovirus RdRp; experiment: Counter-screen gel-shift RdRp assay (primed elongation of PE44-NoV template); type: biochemical, human norovirus; conditions: 100 µM
# Procedure: In this assay, a 32 nucleotide RNA template (PE44-NoV) is extended to 44 nucleotides in the presence of an active RdRp[16]. […] Inhibition of primed elongation of the PE44-NoV template was examined at a fixed concentration of 100 µM (Fig. 4D). In the absence of inhibition (0.5% DMSO vehicle only) the RNA template was extended to 44 nucleotides (Fig. 4D), evidenced by an upward gel shift and the appearance of the second, higher band.
# (§1) Fluorescent RdRp activity assays were carried out as previously described[14],[62]. Briefly, RdRp activity was quantified by monitoring the formation of double-stranded RNA (dsRNA) from a single stranded homopolymeric template, poly(C) (Sigma Aldrich, St Louis, MO, USA), using the fluorescent dye PicoGreen (Life Technologies, Carlsbad, CA, USA). RdRp assays were performed in 384-well plates, and each reaction mixture contained 400 ng enzyme, 45 µM GTP, 10 ng/µL poly(C) RNA, 2.5 mM MnCl2, 5 mM dithiothreitol, (DTT), 0.01% bovine serum albumin (BSA), and 0.005% Tween 20 in 20 mM Tris-HCl, pH 7.5, with a final reaction volume of 25 µL. The previous published norovirus NNI NIC02 was used as a positive control. RdRps were incubated for 10 mins at 30 °C in the presence of the test compounds or the compound vehicle DMSO (0.5% vol/vol) before addition into the reaction mixture, which was then allowed to run 15 min at 30 °C then terminated with 10 mM EDTA, followed by PicoGreen staining and dsRNA quantitation. GraphPad Prism V6.05 (La Jolla, CA, USA) was used to plot the IC50 values. In cases where fluorescent enhancement was recorded for a compound instead of inhibition, a secondary gel-based polymerase activity assay was used as a counter-screen as described below, to exclude the possibility of RdRp activity enhancement (Supplementary Fig. S1). Primed elongation activity was examined in a gel-based assay as previously described[16],[63] using the RNA template (PE44-NoV, Fig. 4D). Gels were imaged using BioRad (Hercules, CA, U.SA) Geldoc Universal Hood II, running BioRad Image Lab software, V4.1, build 16. Antagonism was calculated using Compusyn software V1.0[59]. 54 and PPNDS (4:1 ratio) were tested alone and together against norovirus Sydney 2012 RdRp.
# [3] = biological target: human norovirus Sydney 2012 RdRp (Norovirus GII.4 (Norwalk virus, human norovirus), UniProt K4L8Z7); experiment: Fluorescent de novo RdRp activity assay (PicoGreen, poly(C) template); type: biochemical; conditions: for inhibition of human norovirus RdRp activity: 100 µM; for inhibition of norovirus Sydney 2012 RdRp activity: 10 µM; for inhibition at 100 µM: read-out: inhibition of human norovirus RdRp activity, 100 µM
# Procedure: The 62 compounds identified in silico were screened for inhibition of norovirus RdRp activity using an in vitro fluorescent, de novo RdRp assay. Compounds were tested at fixed concentrations of 10 µM and 100 µM, and compared to mock treated samples containing the vehicle only (0.5% DMSO [vol/vol]) (Fig. 4A,B). […] For certain compounds, significant insolubility was observed, coupled with either inherent fluorescence quenching (positive y-axis values on Fig. 4A,B) or enhancement of the fluorescence signal (negative y-axis values).
# The newly synthesised compounds, including the re-prepared hit 13 and some synthesis intermediates (Table 1), were initially evaluated on norovirus Sydney 2012 RdRp activity in vitro using a quantitative fluorescent assay. Compounds were tested at a fixed concentration of 10 μM and compared to the relative activity of mock treated samples.
# Recombinant calicivirus RdRps (GenBank accession numbers) norovirus GII.Pe/GII.4 Sydney 2012 (KT239579), MNV GV CW1 (DQ285629), RHDV Czech V351 (KF594473.1), and SaV GI.1 Mc114 (AY237422) were expressed and purified as described previously[60],[61]. RdRp resistance mutants were generated using the QuikChange site-directed mutagenesis kit (Agilent Technologies, Santa Clara, CA, USA) and confirmed by Sanger sequencing.
# as §1
# [4] = initial screen of purchased compounds
# [5] = secondary screen of newly synthesised compounds
# [6] = read-out: inhibition of human norovirus RdRp activity, 10 µM, initial screen of purchased compounds
structure (smiles),measurement,setting,value
O=C(Nc1ccc(O)c(-c2nc3ccccc3o2)c1)c1cccnc1 [AP-970/12851847],solubility (observation),[1],insolubility
same,RdRp activity enhancement in gel-based counter-screen,[2],not seen in the gel-based assay
same,inhibition of human norovirus RdRp activity,[3]; [4],apparent RdRp enhancement
O=C1NC(=O)/C(=C/c2ccc(-c3ccc(C(=O)O)cc3)o2)S1 [Compound 27],inhibition of norovirus Sydney 2012 RdRp activity,[3]; [5],lacked RdRp inhibitory activity
O=C(C1=C(O)C(=O)N(Cc2ccco2)C1c1cccc(O)c1)c1ccc2c(c1)OCCO2 (stereo not drawn) [Compound 8],inhibition at 10 µM,[3]; [6],> 25%
same,inhibition at 100 µM,[3]; [4],> 25%
O=C(O)c1ccc(-c2ccc(/C=C3\SC(=O)N(CC(=O)N4CCOCC4)C3=O)o2)cc1 [Compound 28],inhibition at 10 µM,"[3]; read-out: inhibition of norovirus Sydney 2012 RdRp activity, 10 µM, secondary screen of newly synthesised compounds",~50%
CC(NC(=O)CCC(=O)Nc1ccccc1O)c1ccccc1 (stereo not drawn) [Compound 7],inhibition at 10 µM,[3]; [6],> 25%
same,inhibition at 100 µM,[3]; [4],> 50%
O=C(CN1C(=O)S/C(=C\c2ccc(-c3ccccc3)o2)C1=O)N1CCCCC1 [Compound 24a],inhibition of norovirus Sydney 2012 RdRp activity,[3]; [5],loss of inhibitory activity
Cc1ccccc1-c1ccc(/C=C2\SC(=O)NC2=O)o1 [Compound 18c],inhibition of norovirus Sydney 2012 RdRp activity,[3]; [5],lacked RdRp inhibitory activity
O=C1NC(=O)/C(=C/c2ccc(-c3ccccc3)o2)S1 [Compound 18a],inhibition of norovirus Sydney 2012 RdRp activity,[3]; [5],lacked RdRp inhibitory activity
O=C(O)c1ccc2nc(-c3cccc(-c4nc5ccc(C(=O)O)cc5[nH]4)c3)[nH]c2c1 [AJ-077/33270018],solubility (observation),[1],insolubility
same,RdRp activity enhancement in gel-based counter-screen,[2],not seen in the gel-based assay
same,inhibition of human norovirus RdRp activity,[3]; [4],apparent RdRp enhancement
Cc1ccccc1-c1ccc(/C=C2\SC(=O)N(CC(=O)N3CCCCC3)C2=O)o1 [Compound 24c],inhibition of norovirus Sydney 2012 RdRp activity,[3]; [5],loss of inhibitory activity
Cc1cc(C(=O)O)ccc1-c1ccc(/C=C2\SC(=O)N(CC(=O)N3CCCCC3)C2=O)o1 [Compound 40e],inhibition of norovirus Sydney 2012 RdRp activity,[3]; [5],abolished the activity
Cc1ccccc1-c1ccc(/C=C2\SC(=O)N(CC(=O)N3CCOCC3)C2=O)o1 [Compound 23c],inhibition of norovirus Sydney 2012 RdRp activity,[3]; [5],complete loss of activity
Cc1ccc(NC(=O)CSc2n[nH]c(-c3ccccc3O)n2)c(C)c1 [Compound 10],inhibition at 10 µM,[3]; [6],> 25%
same,inhibition at 100 µM,[3]; [4],> 25%
COC(=O)c1ccc(-c2ccc(/C=C3\SC(=O)N(CC(=O)N4CCOCC4)C3=O)o2)cc1 [Compound 23b],inhibition of norovirus Sydney 2012 RdRp activity,[3]; [5],complete loss of activity
